Measurements taken from EP0518769B1, “Ethanolaminebenzoate derivative, process for their preparation and pharmaceutical compositions containing them” (ADIR ET COMPAGNIE, priority 1991, dated 1992).

Experiments:
[1] = test system: Rats SDCD mâles de 52 semaines; experiment: Chronic per os treatment (14 days, twice daily) in the male SDCD rat aged 52 weeks; format: in vivo; details: 0,5 mg/kg×2 per os, vs Contrôle 1,1 ± 0,14 g/l
Text: Les essais sont réalisés sur des rats qui présentent des anomalies pondérales associées à un hyperinsulisme et une hyperglycéridémie.
Il est recherché : • d'une part l'effet d'un traitement prolongé du produit de l'exemple 1 et de substances de référence sur ces anomalies, et • d'autre part, la consommation du glucose par le tissu adipeux est mesuré à l'état basal et en présence d'insuline (10⁻⁹ M).
On utilise des rats identiques à ceux de l'étude du traitement aigu, (cf. ci-dessus le paragraphe A- 2.1), à savoir des rats SDCD mâles agés de 52 semaines.
9 jours avant le début de l'expérimentation (J₋₉), sont constitués des lots de rats par randomisation stratifiée sur le poids.
5 jours avant le début de l'expérimentation (J₋₅), les rats sont conditionnés par administration d'une solution de gomme.
Le premier jour de l'expérimentation (J₁), les produits à tester sont administrés à différentes doses aux rats 2 fois par jour. Plus précisémment, les produits sont administrés en suspension dans la gomme entre 9 et 10 heures et 16-17 heures pendant 14 jours. Une pesée quotidienne des animaux traités est effectuée.
Le 15ème jour, les rats (à jeun depuis 18 heures) sont sacrifiés par décapitation. Le sang est recueilli directement dans une cupule. Un aliquote (50 µl) est transféré dans 500 µl d'acétate d'uranyl pour dosage de la glycémie. […]

[2] = test system: Rats SDCD mâles 52 semaines; experiment: Acute treatment by portal perfusion in the conscious rat, with IVGTT; format: in vivo; details: 0,25 µg/kg/min×60 min intraportal perfusion; vs Contrôle 57,4 ± 13,7 µU/ml
Text: La technique de perfusion portale chez le rat vigile permet d'étudier l'effet de substances pharmacologiques sur les modifications de la tolérance au glucose adminstré par voie intraveineuse.
L'injection d'agents directement dans la circulation portale permet d'éviter les effets du transit gastrique, d'absorption et de libération d'hormone par la paroi intestinale et ainsi d'explorer : • soit un effet direct sur le tissu hépatique, • soit l'existence d'un relai foie-système nerveux central-tissu périphérique (foie, muscle ou cible endocrine).
Dans cette expérimentation, on a utilisé des rats mâles adultes SPRAGUE DAWLEY par lots de 5 à 12 rats.
Les rats utilisés, agés de 52 semaines, présentent • une diminution de la tolérance au glucose, • une augmentation de l'insulinémie basale, et • une augmentation des lipides plasmatiques.
La stabulation (de 9 à 52 semaines) de ces rats a été réalisée dans une pièce à température régulée de 21 à 22 °C et soumise à un cycle fixe de lumière (de 7 h 30 à 19 h 30) et d'obscurité (de 19 h 30 à 7 h 30). Leur alimentation a consisté en un régime d'entretien (UAR A 03); eau et nourriture ont été fournies "ad libitum", à l'exception du jeûne nocturne précédant les tests où la nourriture était retirée. […]

[3] = test system: rats agés de 12 semaines, insulinorésistance induite par l'amyline; experiment: Insulin resistance induced by intraportal amylin perfusion, with IVGTT; format: in vivo, rat; details: Perfusion amyline + 0,75µg/kg/min pendant 60 mn
Text: A J₇ avant le début de l'expérimentation, les rats sont anesthésiés à la kétamine (IMALGENE 1000 - Rhône MERIEUX), et un cathéter en silastic (602-135, médical grade, DOW CORNING MIDLAND) est implanté dans la veine porte hépatique [cf. Strubbe J.H., Wolsink J.G., Schutte A.M., Balkan B., and Prins A.J.A. : Hepatic-portal and cardiac infusion of CKK-8 and glucagon induce different effects on feeding. Physiology and Behavior 46,643-646 (1989)] pour la perfusion du soluté physiologique (jour contrôle) puis du produit à tester. Ils sont alors placés individuellement dans des cages en plexiglas. • Après récupération, soit environ 10 jours plus tard, un second cathéter en silastic (602-155, médical grad, DOW CORNING MIDLAND) est introduit jusque dans l'oreillette droite par la veine jugulaire droite [cf. Steffens A.B : A Method for frequent sampling of blood and continuous infusion of fluids in the rat without disturbing the animal. Physiology and behavior 4, 833-836 (1969)]. Lors des test, les différents prélèvements sanguins et l'injection intra-cardiaque du bolus glucosé seront effectués à l'aide de ce cathéter. Pendant les deux interventions chirurgicales, les cathéters sont glissés sous la peau et extériorisés au-dessus de la tête au moyen d'une aiguille limée recourbée et bouchée par un capuchon de polyéthylène (PE) fermé à la bougie. • 0,4 ml d'une solution d'héparine à 500 U/ml (ROUSSEL UCLAF) suivie de 0,1 ml de PVP (Solution de Polyvinylpyrrolidone à 30 % - PM 25000 - MERCK) sont introduits dans les cathéters avant la fermeture par le capuchon de polyéthylène. La viscosité du PVP permet d'éviter un reflux du sang dans le cathéter. • La veille de chaque expérience, les rats sont soumis à un jeûne nocturne de 18 heures. Le jour de l'expérience, ces rats sont pesés et le bon fonctionnement des cathéters vérifié. • Afin d'éliminer le stress du branchement des cathéters sur les aiguilles extériorisées sur le dessus de la tête, 20 minutes de repos sont nécessaires avant de commencer l'expérience. • Les perfusions intraportales, réalisées à l'aide d'un cathéter en polyéthylène N° 3 durent 60 minutes; elles ont un débit constant de 2 ml/heure soit envirion 0,033 ml/minute, assuré par un perfuseur BRAUN. […]

LDL [4] = experiment: LDL oxidation in vitro by monocytes; format: cell-based; details: à 10⁻⁴ M
Text: (§1) Une étude comparative entre le produit de l'exemple 1 et les substances de référence (Benfluorex, Diméthylbiguanide) sur l'oxydation des LDL in vitro a été réalisée.

LDL [5] = experiment: LDL oxidation in vitro by copper; format: biochemical; details: à 10⁻⁴ M
Text: as §1

| Compound | Cholestérol variation % [1] [%] | Insulinémie au pic Variation % [2] [%] | Tolérance au glucose K.10^-2 ([3]; Controle 3,54±0,24, amyline alone 1,71±0,27) | Insulinémie basale ([3]; Controle 5,93±0,48, amyline alone 6,87±0,77) | Insulinémie 24 min après glucose ([3]; Controle 8,86±0,77, amyline alone 15,28±1,90) | Insulinémie au pic ([3]; Controle 24,80±1,86, amyline alone 23,54±1,7) | Oxydation des LDL in vitro par les monocytes (LDL [4]) | Oxydation des LDL in vitro par le cuivre (LDL [5]) |
| --- | --- | --- | --- | --- | --- | --- | --- | --- |
| COC(CNCCOC(=O)c1ccc(CCNC(=O)CC2c3ccccc3-c3ccccc32)cc1)c1cccc(C(F)(F)F)c1 (single isomer, unassigned) [Exemple 1, Isomère lévogyre du chlorhydratede para-[2-(α-fluorén-9-ylacétylamino) éthyl] benzoatede 2-[(β-méthoxy β-métatrifluorométhylphényl) éthylamino] éthyle] | 0 | 0 | 3,79±0,38 | 8,26±1,15 µU/ml | 15±1,86 µU/ml | 23,60±2,17 µU/ml |  |  |
| CC(Cc1cccc(C(F)(F)F)c1)NCCOC(=O)c1ccccc1 (stereo not drawn) [Benfluorex, 1-(3-trifluorométhylphényl)-2-(β-benzoyloxyéthyl)aminopropane] |  |  |  |  |  |  | Inactif à 10⁻⁴ M | Inactif à 10⁻⁴ M |
